Values of other authors as cited in patent US6440395B1, “Antiplaque mouth rinse” (priority 1992, dated 2002).

solubility in water (in water at 25° C.) | Compound | solubility in water and alcohol (water and alcohol, stated in words)
less than 1 % by weight | Oc1cc(Cl)ccc1Oc1ccc(Cl)cc1Cl [Triclosan, 2,4,4′-trichloro-2′-hydroxydiphenyl ether] | –
– | CCCCCCCCCCCCCCCC[n+]1ccccc1 [CPC, cetyl pyridinium chloride] | highly soluble
